Data from the supplement of paper PMC10307832.

Columns and labels:
Test in all cases: relative viability (nuclei count vs DMSO), 5 days (fraction); higher = more cells survive
Vandetanib + Dasatinib = compound: COc1cc2/c(=N/c3ccc(Br)cc3F)nc[nH]c2cc1OCC1CCN(C)CC1 [Vandetanib] + Cc1nc(Nc2ncc(C(=O)Nc3c(C)cccc3Cl)s2)cc(N2CCN(CCO)CC2)n1 [Dasatinib] (partner 0.075 µM)
Summary of the method: (§1)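 Dosing by pin tool came one day after lung cancer cell lines were seeded in 1536-well plates, using either one drug or a fixed anchor-drug dose plus five library-drug doses (not always all listed) in √10 steps. After 5 days, nuclei were counted on 4× images. Relative viability is treated-well nuclei count divided by vehicle-well nuclei count, and values are medians of duplicate plates.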

Vandetanib + AZD7762 = compound: COc1cc2/c(=N/c3ccc(Br)cc3F)nc[nH]c2cc1OCC1CCN(C)CC1 [Vandetanib] + NC(=O)Nc1cc(-c2cccc(F)c2)sc1C(=O)N[C@H]1CCCNC1 [AZD7762] (partner 0.2 µM)
Summary of the method: as §1

NVP-TAE684 + AZD7762 = compound: COc1cc(N2CCC(N3CCN(C)CC3)CC2)ccc1Nc1ncc(Cl)c(Nc2ccccc2S(=O)(=O)C(C)C)n1 [NVP-TAE684] + NC(=O)Nc1cc(-c2cccc(F)c2)sc1C(=O)N[C@H]1CCCNC1 [AZD7762] (partner 0.2 µM)
Summary of the method: as §1

Vandetanib + Vorinostat = compound: COc1cc2/c(=N/c3ccc(Br)cc3F)nc[nH]c2cc1OCC1CCN(C)CC1 [Vandetanib] + O=C(CCCCCCC(=O)Nc1ccccc1)NO [Vorinostat] (partner 1 µM)
Summary of the method: as §1

Cell Line | relative viability (Vandetanib + Dasatinib; first compound 0.02 µM) | relative viability (Vandetanib + Dasatinib; first compound 0.06325 µM) | relative viability (Vandetanib + Dasatinib; first compound 0.2 µM) | relative viability (Vandetanib + Dasatinib; first compound 0.6325 µM) | relative viability (Vandetanib + Dasatinib; first compound 2 µM) | relative viability (Vandetanib + AZD7762; first compound 0.02 µM) | relative viability (Vandetanib + AZD7762; first compound 0.06325 µM) | relative viability (Vandetanib + AZD7762; first compound 0.2 µM) | relative viability (Vandetanib + AZD7762; first compound 0.6325 µM) | relative viability (Vandetanib + AZD7762; first compound 2 µM) | relative viability (NVP-TAE684 + AZD7762; first compound 0.2 µM) | relative viability (NVP-TAE684 + AZD7762; first compound 0.6325 µM) | relative viability (NVP-TAE684 + AZD7762; first compound 2 µM) | relative viability (Vandetanib + Vorinostat; first compound 0.02 µM) | relative viability (Vandetanib + Vorinostat; first compound 0.06325 µM) | relative viability (Vandetanib + Vorinostat; first compound 0.2 µM) | relative viability (Vandetanib + Vorinostat; first compound 0.6325 µM) | relative viability (Vandetanib + Vorinostat; first compound 2 µM)
A-427 | 0.721 | 0.697 | 0.638 | 0.704 | 0.702 | 0.684 | 0.674 | 0.719 | 0.62 | 0.61 | 0.69 | 0.528 | 0.366 | 0.809 | 0.85 | 0.903 | 0.842 | 0.911
NCI-H1975 | 0.349 | 0.361 | 0.341 | 0.423 | 0.373 | 0.701 | 0.663 | 0.645 | 0.687 | 0.617 | 0.694 | 0.649 | 0.381 | 0.71 | 0.646 | 0.709 | 0.665 | 0.636
NCI-H1993 | 0.796 | 0.577 | 0.514 | 0.623 | 0.578 | 0.737 | 0.74 | 0.861 | 0.78 | 0.555 | 0.772 | 0.826 | 0.584 | – | 0.741 | 0.797 | 0.639 | 0.566
201T | 0.573 | 0.527 | 0.578 | 0.589 | 0.575 | 0.675 | 0.62 | 0.626 | 0.588 | 0.614 | 0.669 | 0.79 | 0.521 | 0.886 | 0.876 | 0.959 | 0.904 | 0.957
LK-2 | 0.261 | 0.24 | 0.295 | 0.239 | 0.221 | 0.36 | 0.345 | 0.309 | 0.369 | 0.515 | 0.49 | 0.268 | 0.129 | 0.31 | 0.311 | 0.341 | 0.265 | 0.365
NCI-H647 | 0.151 | 0.207 | 0.175 | 0.178 | 0.198 | 0.404 | 0.481 | 0.395 | 0.404 | 0.446 | 0.41 | 0.408 | 0.201 | 0.514 | 0.569 | 0.684 | 0.715 | 0.432
HCC-78 | 0.428 | 0.286 | 0.362 | 0.451 | 0.336 | 0.591 | 0.669 | 0.596 | 0.645 | 0.609 | 0.603 | 0.52 | 0.376 | 0.5 | 0.481 | 0.418 | 0.505 | 0.346
NCI-H727 | 0.403 | 0.408 | 0.317 | 0.318 | 0.329 | 0.482 | 0.489 | 0.651 | 0.562 | 0.635 | 0.588 | 0.58 | 0.344 | 1.11 | 1.18 | 1.13 | 1.26 | 0.992
SW 900 | 0.445 | 0.57 | 0.537 | 0.641 | 0.409 | 0.6 | 0.607 | – | 0.598 | 0.688 | 0.526 | 0.476 | 0.445 | 0.692 | 0.528 | – | 0.425 | 0.429
BEN | 0.309 | 0.331 | 0.271 | 0.286 | 0.288 | 0.69 | 0.622 | 0.585 | 0.633 | 0.661 | 0.794 | 0.615 | 0.6 | 0.6 | 0.56 | 0.613 | 0.552 | 0.569
NCI-H650 | 0.425 | 0.511 | – | 0.433 | 0.365 | 1.01 | 1.02 | 0.976 | 0.941 | 0.905 | 1.03 | 0.848 | 0.853 | 0.585 | 0.533 | 0.514 | 0.544 | 0.341
NCI-H441 | 0.552 | 0.54 | 0.617 | 0.598 | 0.629 | 1.12 | 0.945 | 1.02 | 1.31 | 1.34 | 1.12 | 1.04 | 0.598 | 0.781 | 0.702 | 0.8 | 0.767 | 0.821
NCI-H522 | 0.849 | 0.724 | 0.885 | 0.808 | 0.821 | 0.753 | 0.876 | 0.738 | 0.92 | 0.699 | 0.91 | 0.938 | 0.744 | 0.947 | 0.962 | 0.85 | 0.874 | 0.936
NCI-H1793 | 0.448 | 0.353 | 0.387 | 0.381 | 0.391 | 0.514 | 0.409 | 0.331 | 0.286 | 0.397 | 0.479 | 0.247 | 0.169 | 0.716 | 0.618 | 0.651 | 0.648 | 0.624
NCI-H1915 | 0.278 | 0.279 | 0.304 | 0.313 | 0.312 | 0.696 | 0.664 | 0.693 | 0.612 | 0.719 | 0.699 | 0.742 | 0.595 | 0.497 | 0.512 | 0.535 | 0.532 | 0.505
HCC-366 | 0.6 | 0.625 | 0.663 | 0.561 | 0.637 | 0.205 | 0.317 | 0.284 | 0.243 | 0.286 | 0.269 | 0.194 | 0.218 | 0.277 | 0.326 | 0.278 | 0.31 | 0.438
LCLC-103H | 0.511 | 0.422 | 0.43 | 0.424 | 0.47 | 0.755 | 0.783 | 0.758 | 0.772 | 0.82 | 0.877 | 0.771 | 0.664 | 0.756 | 0.759 | 0.822 | 0.755 | 0.814
ABC-1 | 0.423 | 0.547 | 0.605 | 0.614 | 0.367 | 0.871 | 0.901 | – | 0.726 | 0.773 | 0.917 | 0.524 | 0.472 | 1.05 | 1.11 | 1.02 | 0.96 | 0.773
